The subject of this experiment is HBsAg. Put plainly: HBsAg assay: inhibition of HBsAg in HepG2.2.15 cells (chemiluminescence immunoassay of supernatant). In kind it is cell-based, hepatitis B virus. The note with it: HBsAg in supernatant at day 6 after exposure to compound, 0.5% DMSO. The method, boiled down:
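Secreted HBsAg quantified by CLIA in day-6 supernatants of HepG2.2.15 cultures given compound dilutions at 0.5% final DMSO, with one compound/medium replenishment after 2–3 days. Dose-response fits gave EC50 (50% inhibition); viability checked separately by CellTiter-Glo.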

Setting [1] is: Hepatitis B virus, HepG2.2.15, 144 h, read-out: sAg EC50, HepG2.2.15 cells.
[2] abbreviates: read-out: sAg EC50, HepG2.2.15 cells.

Molecules are shown by their SMILES. Like-named read-outs stand apart in the source and are kept apart here.

What is called EC50 is the concentration giving half of the maximal effect. For `O[C@@H]1CN(c2cc(C3CC3c3cnc(-c4ncccn4)nc3)cc(F)c2F)C[C@H]1O` (relative stereo) [Example 239, trans-(3R,4R)-1-(5-(2-([2,2′-Bipyrimidin]-5-yl)cyclopropyl)-2,3-difluorophenyl)pyrrolidine-3,4-diol], under setting [1], the 50% effective concentration (EC50) was found to be 110 nM.

As to `CNC(=O)c1cc(C2CC2c2cnc(-c3ncccn3)nc2)ccc1Cl` (single isomer, unassigned) [Example 202, trans-5-(2-([2,2′-Bipyrimidin]-5-yl)cyclopropyl)-2-chloro-N-methylbenzamide], under setting [2], the EC50 came to 4000 nM.

Take `COc1cc(C2CC2c2cnc(-c3ncccn3)nc2)cc(OC)c1Cl` (single isomer, unassigned) [Example 98, trans-5-(2-(4-Chloro-3,5-dimethoxyphenyl)cyclopropyl)-2,2′-bipyrimidine]: the EC50 under setting [2] turned out to be 350 nM.

With `O[C@@H]1CCN(c2cc(C3CC3c3cnc(-c4ncccn4)nc3)ccc2F)C1` (single isomer, unassigned) [Example 69], the EC50 under setting [1] is 170 nM.

On to `CC(C)OC1CN(c2cc([C@@H]3C[C@H]3c3cnc(-c4ncccn4)nc3)cc(F)c2F)C1` (relative stereo) [Example 210, trans-5-(2-(3,4-Difluoro-5-(3-isopropoxyazetidin-1-yl)phenyl)cyclopropyl)-2,2′-bipyrimidine], for which the EC50 under setting [1] came out at 55 nM.

Take `Cc1cc(C2CC2c2cnc(-c3ncccn3)nc2)cc(OCC2CC2)c1Cl` (single isomer, unassigned) [Example 49, trans-5-((2-(4-Chloro-3-(cyclopropylmethoxy)-5-methylphenyl)cyclopropyl)-2,2′-bipyrimidine]: the EC50 under setting [2] was found to be 170 nM.

Consider `Fc1ccc(C2CC2c2cnc(-c3ncccn3)nc2)cc1N1CCCCC1` (single isomer, unassigned) [Example 195, trans-5-(2-(4-Fluoro-3-(piperidin-1-yl)phenyl)cyclopropyl)-2,2′-bipyrimidine], for which, under setting [2], the half-maximal effective concentration (EC50) came to 3000 nM.

As for `Fc1cc(Cl)cc(C2CC2c2cnc(-c3ncccn3)nc2)c1` (single isomer, unassigned) [Example 119, trans-5-(2-(3-Chloro-5-fluorophenyl)cyclopropyl)-2,2′-bipyrimidine], under setting [2], the EC50 stood at 330 nM.

As to `Fc1ccc([C@@H]2C[C@H]2c2cnc(-c3ncccn3)nc2)c2ccccc12` (relative stereo) [Example 168, trans-5-(2-(4-Fluoronaphthalen-1-yl)cyclopropyl)-2,2′-bipyrimidine], the EC50 under setting [1] came out at 36 nM.

On to `COc1cc(F)ccc1C1CC1c1cnc(-c2ncccn2)nc1` (single isomer, unassigned) [Example 9, trans-5-(2-(4-Fluoro-2-methoxyphenyl)cyclopropyl)-2,2′-bipyrimidine], for which, under setting [2], the EC50 worked out at 85 nM.

As for `COc1cc([C@@H]2C[C@H]2c2cnc(-c3ncccn3)nc2)cc(C(F)(F)F)c1F` (relative stereo) [Example 165, trans-5-(2-(4-Fluoro-3-methoxy-5-(trifluoromethyl)phenyl)cyclopropyl)-2,2′-bipyrimidine], the concentration giving a half-maximal response (EC50) under setting [1] amounted to 250 nM.

As for `Oc1cnn(-c2cc(C3CC3c3cnc(-c4ncccn4)nc3)cc(F)c2F)c1` (single isomer, unassigned) [Example 259, trans-1-(5-(2-([2,2′-Bipyrimidin]-5-yl)cyclopropyl)-2,3-difluorophenyl)-1H-pyrazol-4-ol], the EC50 under setting [2] was 2000 nM.

Take `CN(CCO)c1cc([C@@H]2C[C@H]2c2cnc(-c3ncccn3)nc2)cc(F)c1F` (relative stereo) [Example 244, trans-2-((5-(2-([2,2′-Bipyrimidin]-5-yl)cyclopropyl)-2,3-difluorophenyl)(methyl)amino)ethan-1-ol]: the concentration for a half-maximal effect (EC50) under setting [1] is 92 nM.

Regarding `Fc1ccc(C2CC2c2cnc(-c3ncccn3)nc2)cc1N1CCC1` (single isomer, unassigned) [Example 82, trans-5-(2-(3-(Azetidin-1-yl)-4-fluorophenyl)cyclopropyl)-2,2′-bipyrimidine], the half-maximal effective concentration (EC50) under setting [2] was 110 nM.

Turning to `COc1cnn(-c2cc(C3CC3c3cnc(-c4ncccn4)nc3)cc(F)c2F)c1` (single isomer, unassigned) [Example 251, trans-5-(2-(3,4-Difluoro-5-(4-methoxy-1H-pyrazol-1-yl)phenyl)cyclopropyl)-2,2′-bipyrimidine], the 50% effective concentration (EC50) under setting [2] is 41 nM.

`COCc1cnn(-c2cc([C@@H]3C[C@H]3c3cnc(-c4ncccn4)nc3)cc(F)c2F)c1` (relative stereo) [Example 236, trans-5-(2-(3,4-Difluoro-5-(4-(methoxymethyl)-1H-pyrazol-1-yl)phenyl)cyclopropyl)-2,2′-bipyrimidine]: the concentration giving a half-maximal response (EC50) under setting [1] stood at 78 nM.

`CN(C)c1cc(C2CC2c2cnc(-c3ncccn3)nc2)ccc1F` (single isomer, unassigned) [Example 64, trans-5-(2-([2,2′-Bipyrimidin]-5-yl)cyclopropyl)-2-fluoro-N,N-dimethylaniline]: under setting [2], the half-maximal effective concentration (EC50) turned out to be 3000 nM.

Consider `COc1cc(C2CC2c2cnc(-c3ncccn3)nc2)cc(C)c1F` (single isomer, unassigned) [Example 150, trans-5-(2-(4-Fluoro-3-methoxy-5-methylphenyl)cyclopropyl)-2,2′-bipyrimidine], for which the concentration giving a half-maximal response (EC50) under setting [2] turned out to be 1000 nM.

With `OC1CC2(C1)CN(c1cc([C@@H]3C[C@H]3c3cnc(-c4ncccn4)nc3)cc(F)c1F)C2` (relative stereo) [Example 238, trans-2-(5-(2-([2,2′-Bipyrimidin]-5-yl)cyclopropyl)-2,3-difluorophenyl)-2-azaspiro[3.3]heptan-6-ol], under setting [1], the EC50 was 53 nM.

For the molecule `CO[C@@H]1CCN(c2cc(C3CC3c3cnc(-c4ncccn4)nc3)cc(F)c2F)C1` (single isomer, unassigned) [Example 96], under setting [2], the concentration for a half-maximal effect (EC50) was found to be 93 nM.

As for `Fc1cc([C@@H]2C[C@H]2c2cnc(-c3ncccn3)nc2)cc(OCCCN2CCOCC2)c1F` (relative stereo) [Example 240, trans-4-(3-(5-(2-([2,2′-Bipyrimidin]-5-yl)cyclopropyl)-2,3-difluorophenoxy)propyl)morpholine], under setting [1], the EC50 stood at 210 nM.

`COc1cc(C2CC2c2cnc(-c3ncccn3)nc2)cc(OC)c1F` (single isomer, unassigned) [Example 147, trans-5-(2-(4-Fluoro-3,5-dimethoxyphenyl)cyclopropyl)-2,2′-bipyrimidine]: the concentration giving a half-maximal response (EC50) under setting [2] was determined as 10000 nM.

As to `Fc1cc([C@@H]2C[C@H]2c2cnc(-c3ncccn3)nc2)cc(F)c1F` (relative stereo) [Example 160, trans-5-(2-(3,4,5-Trifluorophenyl)cyclopropyl)-2,2′-bipyrimidine], the EC50 under setting [1] stood at 270 nM.

On to `COc1c(F)ccc(C2CC2c2cnc(-c3ncccn3)nc2)c1F` (single isomer, unassigned) [Example 189, trans-5-(2-(2,4-Difluoro-3-methoxyphenyl)cyclopropyl)-2,2′-bipyrimidine], for which the EC50 under setting [2] worked out at 120 nM.

For the molecule `COc1cc(F)ccc1[C@@H]1C[C@H]1c1cnc(-c2ncccn2)nc1` (relative stereo) [Example 7, trans-5-(2-(4-Fluoro-2-methoxyphenyl)cyclopropyl)-2,2′-bipyrimidine], the half-maximal effective concentration (EC50) under setting [1] was determined as 370 nM.

`COc1cc2ncn(-c3cc([C@@H]4C[C@H]4c4cnc(-c5ncccn5)nc4)cc(F)c3F)c2cc1OC` (relative stereo) [Example 237, trans-1-(5-(2-([2,2′-Bipyrimidin]-5-yl)cyclopropyl)-2,3-difluorophenyl)-5,6-dimethoxy-1H-benzo [d]imidazole]: the EC50 under setting [1] stood at 200 nM.

`O=C1CCCN1c1cc(C2CC2c2cnc(-c3ncccn3)nc2)ccc1F` (single isomer, unassigned) [Example 197, trans-1-(5-(2-([2,2′-Bipyrimidin]-5-yl)cyclopropyl)-2-fluorophenyl)pyrrolidin-2-one]: the EC50 under setting [2] was 3000 nM.

Regarding `O[C@H]1CCN(c2cc(C3CC3c3cnc(-c4ncccn4)nc3)ccc2F)C1` (single isomer, unassigned) [Example 66], the EC50 under setting [2] came to 230 nM.

Take `CC(=O)Nc1cc(C2CC2c2cnc(-c3ncccn3)nc2)ccc1Cl` (single isomer, unassigned) [Example 205, trans-N-(5-(2-([2,2′-Bipyrimidin]-5-yl)cyclopropyl)-2-chlorophenyl)acetamide]: the EC50 under setting [1] turned out to be 510 nM.

For the molecule `COc1cc([C@@H]2C[C@H]2c2cnc(-c3ccccn3)nc2)cc(F)c1F` (relative stereo) [Example 174, trans-5-(2-(3,4-Difluoro-5-methoxyphenyl)cyclopropyl)-2-(pyridin-2-yl)pyrimidine], the concentration giving a half-maximal response (EC50) under setting [1] amounted to 67 nM.

For the molecule `CC(=O)N1CC[C@@H](Nc2cc(C3CC3c3cnc(-c4ncccn4)nc3)cc(F)c2F)C1` (single isomer, unassigned) [Example 227], the EC50 under setting [2] came out at 270 nM.

For `CC(=O)N1CC[C@H](Nc2cc(C3CC3c3cnc(-c4ncccn4)nc3)cc(F)c2F)C1` (single isomer, unassigned) [Example 224], the EC50 under setting [2] was determined as 5000 nM.

For the molecule `CNC(=O)c1cc(C2CC2c2cnc(-c3ncccn3)nc2)ccc1Cl` (single isomer, unassigned) [Example 201, trans-5-(2-([2,2′-Bipyrimidin]-5-yl)cyclopropyl)-2-chloro-N-methylbenzamide], under setting [2], the EC50 came out at 9000 nM.

Turning to `Cc1c(C2CC2c2cnc(-c3ncccn3)nc2)ccc(Cl)c1OCC1CC1` (single isomer, unassigned) [Example 62, trans-5-(2-(4-Chloro-3-(cyclopropylmethoxy)-2-methylphenyl)cyclopropyl)-2,2′-bipyrimidine], the 50% effective concentration (EC50) under setting [2] was determined as 49000 nM.

`Fc1cc(C2CC2c2cnc(-c3ncccn3)nc2)cc(O[C@@H]2CCOC2)c1F` (single isomer, unassigned) [Example 248]: the concentration for a half-maximal effect (EC50) under setting [2] was 1000 nM.

Regarding `Cn1ccc(COc2cc([C@@H]3C[C@H]3c3cnc(-c4ncccn4)nc3)cc(F)c2F)n1` (relative stereo) [Example 219, trans-5-(2-(3,4-Difluoro-5-((1-methyl-1H-pyrazol-3-yl)methoxy)phenyl)cyclopropyl)-2,2′-bipyrimidine], the EC50 under setting [1] stood at 96 nM.

The values above are taken from US20230083973A1, “SUBSTITUTED CYCLOPROPYL-2,2'-BIP[…], ANALOGUES THEREOF, AND METHODS USING SAME” (priority 2019, published 2023).
